Each compound was assayed on Hep3B cells (hepatocellular carcinoma cell line) (assay: In vitro MTS cell viability assay (NCI-60 methodology), Hep3B). Details: Homo sapiens, 48 h, Table 2, MTS, 2 days drug incubation, 50% reduction vs time zero, read-out: Hep3B LC50.
Type: cell-based
Procedure: The cell viability measurement is based on the NCI-60 screening methodology (Nat. Rev. Cancer 6, 813-823, 2006). Briefly, cells are inoculated into 96-well plates at the optimal plating density. After 24 h, one of the two plates for Hep3B cell line is processed to determine a time zero cell viability (Tz) by MTS assay (Promega). Compounds are added over a 2-fold serial dilution to provide a total five drug concentrations plus DMSO control. Plates are incubated for a further 2 days, then measured cell viability by MTS assay [control growth (C) and test growth in the presence of drug at the five concentration levels (Ti)]. The LC50 is calculated from [(Ti−Tz)/Tz]×100=−50, which is the drug concentration resulting in a 50% reduction at the end of the drug treatment as compared to that at the beginning.
The compounds prepared in Tables 1-10 were tested in three in vitro assays, and the results are shown in Tables 1-10 for Hep3B and Table 11 for SW480 and NCI-H460 shown below. Herein, Hep3B refers to hepatocellular carcinoma cell line, SW480 refers to colon adenocarcinoma cell line, and NCI-H460 refers to human lung cancer cell line.
Shown in following Tables 1 to 10 are the structures and in vitro activities of exemplary compounds of formula (I).
`Cc1csc2c(-c3cccc(OC(F)(F)F)c3)nc(NC(=O)c3ccc([N+](=O)[O-])s3)nc12` [Compound 2-7, N-(7-methyl-(3-(trifluoromethoxy)phenyl)thieno[3,2-d]pyrimidin-2-yl)-5-nitrothiophene-2-carboxamide] gave an LC50 of 3430 nM. Compound `Cc1csc2c(-c3ccc(OC(F)(F)F)cc3)nc(NC(=O)c3ccc([N+](=O)[O-])s3)nc12` [Compound 2-8, N-(7-methyl-4-(4-(trifluoromethoxy)phenyl)thieno[3,2-d]pyrimidin-2-yl)-5-nitrothiophene-2-carboxamide] has an LC50 of 1710 nM.

Same assay, conditions: Homo sapiens, 48 h, Table 3, MTS, 2 days drug incubation, 50% reduction vs time zero, read-out: Hep3B LC50
`Cc1nn(C)c2c(NC(=O)c3ccc([N+](=O)[O-])s3)nc(-c3ccc(C(F)(F)F)cc3)nc12` [Compound 3-1, N-(1,3-dimethyl-5-(4-(trifluoromethyl)phenyl)-1H-pyrazolo[4,3-d]pyrimidin-7-yl)-5-nitrothiophene-2-carboxamide] gave an LC50 of 2220 nM. Compound `Cc1nn(C)c2c(NC(=O)c3ccc([N+](=O)[O-])s3)nc(-c3cccc(C(F)(F)F)c3)nc12` [Compound 3-2, N-(1,3-dimethyl-5-(3-(trifluoromethyl)phenyl)-1H-pyrazolo[4,3-d]pyrimidin-7-yl)-5-nitrothiophene-2-carboxamide] has an LC50 of 860 nM. Compound `Cc1nn(C)c2c(NC(=O)c3ccc([N+](=O)[O-])s3)nc(-c3ccc(OC(F)(F)F)cc3)nc12` [Compound 3-3, N-(1,3-dimethyl-5-(4-(trifluoromethoxy)phenyl)-1H-pyrazolo[4,3-d]pyrimidin-7-yl)-5-nitrothiophene-2-carboxamide] has an LC50 of 1920 nM. Compound `Cc1nn(C)c2c(NC(=O)c3ccc([N+](=O)[O-])s3)nc(-c3cccc(OC(F)(F)F)c3)nc12` [Compound 3-4, N-(1,3-dimethyl-5-(3-(trifluoromethoxy)phenyl)-1H-pyrazolo[4,3-d]pyrimidin-7-yl)-5-nitrothiophene-2-carboxamide] has an LC50 of 1510 nM. For `Cn1cc2nc(-c3ccc(C(C)(C)C)cc3)nc(NC(=O)c3ccc([N+](=O)[O-])s3)c2c1` [Compound 3-10, N-(2-(4-(tert-butyl)phenyl)4-methyl-6H-pyrrolo[3,4,d]pyrimidin-4-yl)-5-nitrothiophene-2-carboxamide], the LC50 was 10000 nM. In the case of `CCn1cc2nc(-c3ccc(C(C)(C)C)cc3)nc(NC(=O)c3ccc([N+](=O)[O-])s3)c2c1` [Compound 3-11, N-(2-(4-(tert-butyl)phenyl)-6-ethyl-6H-pyrrolo[3,4-d]pyrimidin-4-yl)-5-nitrothiophene-2-carboxamide], the LC50 is reported as 7640 nM. `CC(C)n1cc2nc(-c3ccc(C(C)(C)C)cc3)nc(NC(=O)c3ccc([N+](=O)[O-])s3)c2c1` [Compound 3-12, N-(2-(4-(tert-butyl)phenyl)-6-isopropyl-6H-pyrrolo[3,4-d]pyrimidin-4-yl)-5-nitrothiophene-2-carboxamide] was tested, and the LC50 was over 10000 nM.

Same assay, conditions: Homo sapiens, 48 h, Table 4, MTS, 2 days drug incubation, 50% reduction vs time zero, read-out: Hep3B LC50
`Cc1csc2c(NC(=O)c3ccc([N+](=O)[O-])s3)nc(-c3ccc(C(C)(C)C)cc3)nc12` [Compound 4-1] showed an LC50 of 1150 nM. For `Cc1csc2c(NC(=O)c3ccc([N+](=O)[O-])s3)nc(-c3cccc(C(F)(F)F)c3)nc12` [Compound 4-3, N-(7-methyl-2-(3-(trifluoromethyl)phenyl)thieno[3,2-1]pyrimidin-4-yl)-5-nitrothiophene-2-carboxamide], the LC50 was 880 nM. `Cc1csc2c(NC(=O)c3ccc([N+](=O)[O-])s3)nc(-c3ccc(OC(F)(F)F)cc3)nc12` [Compound 4-4, N-(7-methyl-2-(4-(trifluoromethoxy)phenyl)thieno[3,2-d]pyrimidin-4-yl)-5-nitrothiophene-2-carboxamide] showed an LC50 of 890 nM. With `Cc1csc2c(NC(=O)c3ccc([N+](=O)[O-])s3)nc(-c3cc(C(F)(F)F)cc(C(F)(F)F)c3)nc12` [Compound 4-6, N-(2-(3,5-bis(trifluoromethyl)phenyl)-7-methylthieno[3,2-d]pyrimidin-4-yl)-5-nitrothiophene-2-carboxamide] the LC50 was 420 nM. `Cc1csc2c(NC(=O)c3ccc([N+](=O)[O-])s3)nc(-c3cccc(F)c3)nc12` [Compound 4-7, N-(2-(3-fluorophenyl)-7-methylthieno[3,2-d]pyrimidin-4-yl)-5-nitrothiophene-2-carboxamide] gave an LC50 of 1280 nM. With `Cc1csc2c(NC(=O)c3ccc([N+](=O)[O-])s3)nc(-c3ccc(F)cc3)nc12` [Compound 4-8] the LC50 was 1700 nM. Work on `Cc1csc2c(NC(=O)c3ccc([N+](=O)[O-])s3)nc(-c3cc(F)c(F)c(F)c3)nc12` [Compound 4-9, N-(7-methyl-2-(3,4,5-trifluorophenyl)thieno[3,2-d]pyrimidin-4-yl)-5-nitrothiophene-2-carboxamide] yielded an LC50 of over 10000 nM. Compound `Cc1csc2c(NC(=O)c3ccc([N+](=O)[O-])s3)nc(-c3ccc(N(C)C)cc3)nc12` [Compound 4-10, N-(2-(4-(dimethylamino)phenyl)-7-methylthieno[3,2-d]pyrimidin-4-yl)-5-nitrothiophene-2-carboxamide] has an LC50 of over 10000 nM. Compound `Cc1csc2c(NC(=O)c3ccc([N+](=O)[O-])s3)nc(N3CCC(F)(F)C3)nc12` [Compound 4-11, N-(2-(3,3-difluoropyrrolidin-1-yl)-7-methylthieno[3,2-d]pyrimidin-4-yl)-5-nitrothiophene-2-carboxamide] has an LC50 of 3180 nM. `Cc1csc2c(NC(=O)c3ccc([N+](=O)[O-])s3)nc(Oc3ccc(C(C)(C)C)cc3)nc12` [Compound 4-12, N-(2-(4-(tert-butyl)phenoxy)-7-methylthieno[3,2-d]pyrimidin-4-yl)-5-nitrothiophene-2-carboxamide] showed an LC50 of 1340 nM. For `Cc1csc2c(NC(=O)c3ccc([N+](=O)[O-])s3)nc(-c3cc(C(F)(F)F)ccc3F)nc12` [Compound 4-13, N-(2-(2-fluoro-5-(trifluoromethyl)phenyl)-7-methylthieno[3,2-d]pyrimidin-4-yl)-5-nitrothiophene-2-carboxamide], the LC50 was 1700 nM. Work on `Cc1csc2c(NC(=O)c3ccc([N+](=O)[O-])s3)nc(-c3ccc(C(F)(F)F)cc3F)nc12` [Compound 4-14, N-(2-(2-fluoro-4-(trifluoromethyl)phenyl)-7-methylthieno[3,2-d]pyrimidin-4-yl)-5-nitrothiophene-2-carboxamide] yielded an LC50 of 1350 nM. Compound `O=C(Nc1nc(-c2ccc(F)cc2)nc2c(-c3ccccc3)csc12)c1ccc([N+](=O)[O-])s1` [Compound 4-15, N-(2-(4-fluorophenyl)-7-phenylthieno[3,2-d]pyrimidin-4-yl)-5-nitrothiophene-2-carboxamide] has an LC50 of 620 nM. With `O=C(Nc1nc(-c2ccc(Cl)c(F)c2)nc2c(-c3ccccc3)csc12)c1ccc([N+](=O)[O-])s1` [Compound 4-16, N-(2-(4-chloro-3-fluorophenyl)-7-phenylthieno[3,2-d]pyrimidin-4-yl)-5-nitrothiophene-2-carboxamide] the LC50 was 560 nM. In the case of `O=C(Nc1nc(-c2cc(C(F)(F)F)ccc2F)nc2c(-c3ccccc3)csc12)c1ccc([N+](=O)[O-])s1` [Compound 4-17, N-(2-(2-fluoro-5-(trifluoromethyl)phenyl)-7-phenylthieno[3,2-d]pyrimidin-4-yl)-5-nitrothiophene-2-carboxamide], the LC50 is reported as 860 nM. Compound `O=C(Nc1nc(-c2ccc(F)cc2)nc2c(-c3cccc(F)c3)csc12)c1ccc([N+](=O)[O-])s1` [Compound 4-18, N-(7-(3-fluorophenyl)-2-(4-fluorophenyl)thieno[3,2-d]pyrimidin-4-yl)-5-nitrothiophene-2-carboxamide] has an LC50 of 490 nM. `CC(C)(C)c1ccc(-c2csc3c(NC(=O)c4ccc([N+](=O)[O-])s4)nc(-c4ccc(F)cc4)nc23)cc1` [Compound 4-19, N-(7-(4-(tert-butyl)phenyl)-2-(4-fluorophenyl)thieno[3,2-d]pyrimidin-4-yl)-5-nitrothiophene-2-carboxamide] showed an LC50 of 670 nM. Compound `CC(C)(C)OC(=O)N1CCC(n2cnc3c(NC(=O)c4ccc([N+](=O)[O-])s4)nc(-c4ccc(F)cc4)nc32)CC1` [Compound 4-20, tert-butyl 4-(2-(4-fluorophenyl)-6-(5-nitrothiophene-2-carboxamide)-9H-purin-9-yl) piperidine-1-carboxylate] has an LC50 of over 1250 nM.

Same assay, conditions: Homo sapiens, 48 h, Table 5, MTS, 2 days drug incubation, 50% reduction vs time zero, read-out: Hep3B LC50
`O=C(Nc1nc(C2CCNCC2)nc2c1cnn2-c1ccccc1)c1ccc([N+](=O)[O-])s1` [Compound 5-1, 5-nitro-N-(1-phenyl-6-(piperidin-4-yl)-1H-pyrazolo[3,4-d]pyrimidin-4-yl)thiophene-2-carboxamide] showed an LC50 of over 5000 nM. In the case of `C=CC(=O)N1CCC(c2nc(NC(=O)c3ccc([N+](=O)[O-])s3)c3cnn(-c4ccccc4)c3n2)CC1` [Compound 5-2, N-(6-(1-acryloylpiperidin-4-yl)-1-phenyl-1H-pyrazolo[3,4-d]pyrimidin-4-yl)-5-nitrothiophene-2-carboxamide], the LC50 is reported as 2470 nM. In the case of `O=C(Nc1nc(N2CCCC2)nc2c1cnn2-c1ccccc1)c1ccc([N+](=O)[O-])s1` [Compound 5-3, 5-nitro-N-(1-phenyl-6-(pyrrolidin-1-yl)-1H-pyrazolo[3,4-d]pyrimidin-4-yl)thiophene-2-carboxamide], the LC50 is reported as 4910 nM. With `O=C(Nc1nc(N2CC[C@H](O)C2)nc2c1cnn2-c1ccccc1)c1ccc([N+](=O)[O-])s1` [Compound 5-4, (S)—N-(6-(3-hydroxypyrrolidin-1-yl)-1-phenyl-1H-pyrazolo[3,4-d]pyrimidin-4-yl)-5-nitrothiophene-2-carboxamide] the LC50 was 1010 nM.

— patent US20240150356A1, “Pyrimidine amide compounds and use thereof” (ALPHALA CO., LTD., priority 2019, published 2024)
